Experimental data: patent US20190008797A1, “ESTROGEN RECEPTOR ALPHA COLIGANDS, AND METHODS OF USE THEREOF” (priority 2016, published 2019)

How the values were obtained:
[1] = biological target: T1, human glucocorticoid receptor (Homo sapiens, UniProt P04150); assay: GRE-TK-Luc reporter, U2OS cells cotransfected with hGR; assay type: cell-based; settings: 5 μM + 10 nM dexamethasone, 24 hours
T1 construct: expressed in transfected cells; host or cells: U2OS
T1 sequence (P04150 1-777): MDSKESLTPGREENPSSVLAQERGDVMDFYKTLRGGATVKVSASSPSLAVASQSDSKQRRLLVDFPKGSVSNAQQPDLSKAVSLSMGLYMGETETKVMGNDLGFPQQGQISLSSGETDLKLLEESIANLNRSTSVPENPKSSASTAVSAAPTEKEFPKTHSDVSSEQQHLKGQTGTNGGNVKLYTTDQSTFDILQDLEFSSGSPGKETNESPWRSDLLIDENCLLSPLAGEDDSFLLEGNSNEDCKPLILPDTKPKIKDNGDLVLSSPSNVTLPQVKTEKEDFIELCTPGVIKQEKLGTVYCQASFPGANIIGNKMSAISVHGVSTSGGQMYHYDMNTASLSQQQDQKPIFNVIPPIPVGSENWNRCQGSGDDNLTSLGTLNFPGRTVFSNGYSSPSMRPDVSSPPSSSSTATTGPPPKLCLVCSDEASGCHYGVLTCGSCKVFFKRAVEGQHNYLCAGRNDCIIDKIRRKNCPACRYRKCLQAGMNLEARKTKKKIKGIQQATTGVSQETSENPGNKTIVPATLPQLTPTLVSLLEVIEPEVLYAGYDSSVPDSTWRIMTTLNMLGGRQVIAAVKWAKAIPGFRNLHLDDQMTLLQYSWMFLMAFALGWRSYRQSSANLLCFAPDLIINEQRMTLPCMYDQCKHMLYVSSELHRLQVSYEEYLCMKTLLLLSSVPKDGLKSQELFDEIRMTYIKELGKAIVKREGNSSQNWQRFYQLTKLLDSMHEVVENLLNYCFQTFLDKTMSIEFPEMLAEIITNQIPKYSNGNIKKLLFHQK

U2OS-ERα cells [2] = assay: NKG2E mRNA real-time PCR in U2OS-ERα cells; assay type: cell-based, human
Procedure: (FIG. 1a) Chemical structure of 2′, 3′, 4′-THC. (FIG. 1b) U2OS cells cotransfected with ERE tk-luciferase and ERα (left panel) or ERβ (right panel). After transfection the cells were treated for 24 hours with 10 nM estradiol and 5 μM 2′, 3′, 4′-THC alone or in combination. Cells were lysed and luciferase activity was measured. RLU is relative light units. Error bars are the Mean±SEM. **P≤0.01. […] The total cellular RNA was extracted and real-time PCR for KRT19 mRNA was performed as described in Materials and Methods. […] Error bars are ±SEM. *P≤0.05, **** P≤0.0001.
(§1) (FIGS. 6a, 6b) Gene expression of (FIG. 6a) KRT73 and (FIG. 6b) NKG2E in U2OS-ERα cells treated with 10 nM estradiol, 5 μM 2′, 3′, 4′-THC, 1μM ICI alone or in combination for 24 hours. […] Error bars are ±SEM. […] After transfection, luciferase activities were measured as described in the Methods. RLU is relative light units and the data shown are mean ±SEM. (FIG. 6c). […] After transfection, luciferase activities were measured as described in the Methods. RLU is relative light units and the data shown are mean ±SEM (FIG. 6d).

U2OS-ERα cells [3] = assay: Microarray gene regulation in U2OS-ERα cells; assay type: cell-based, human
Procedure: Total cellular RNA was isolated utilizing the Aurum™ RNA isolation kit (Bio-Rad, Hercules, Calif.) per the manufacturer's directions. RNA isolates were first quantified by nanodrop®, and then qualitatively evaluated by the Bio-Rad Experion™ system per the manufacturer's instructions. Biotin-labeled cRNA samples were prepared using 750 ng of total RNA. Biotin-labeled samples were evaluated by both 260/280 absorbance spectrophotometry and capillary electrophoresis. Labeled cRNA samples were hybridized overnight against Human genome HG U133A-2.0 GeneChip® arrays, (Affymetrix, Santa Clara, Calif.). All treatments were done in triplicate with the same batch of microarrays. The data was analyzed as previously described (Saunier, E. F., et al. Estrogenic plant extracts reverse weight gain and fat accumulation without causing mammary gland or uterine proliferation. PloS one 6, e28333 (2011)).
FIGS. 2a-2f2′, 3′, 4′-THC behaves as a unique coagonist on gene expression in U2OS-ERα cells. […] Expression was assessed by up regulation or down regulation of 3-fold or more and a P-value≤0.05. […] Error bars are ±SEM.

U2OS-ERα cells [4] = assay: Real-time PCR of unique genes FGR, KCNK6, KRT73 in U2OS-ERα cells; assay type: cell-based, human; settings: E2 in combination with 5 μM 2′,3′,4′-THC, 24 hrs
Procedure: Expression was assessed by up regulation or down regulation of 3-fold or more and a P-value≤0.05. […] Error bars are ±SEM.
as §1

MCF-7 cells = assay: ERE-TK-Luc transfection assay in MCF-7 cells; settings: 1, 5 or 10 μM + 10 nM E2

SMILES: O=C(/C=C/c1ccccc1)c1ccc(O)c(O)c1O [2′, 3′, 4′-THC, 2′, 3′, 4′-trihydroxychalcone]
- synergy with receptor agonist [1]: no synergy
- NKG2E gene expression, compound alone (U2OS-ERα cells [2]; 10 nM E2, 5 μM 2′,3′,4′-THC, 1 μM tamoxifen or raloxifene, 24 hours): no effect
- synergy in combination with tamoxifen or raloxifene (U2OS-ERα cells [2]; 5 μM + 1 μM tamoxifen or raloxifene): No synergy
- effect on E2-induced NKG2E gene expression (U2OS-ERα cells [2]; in combination with 10 nM E2, 24 hours): synergistic activation
- number of genes regulated, compound alone (U2OS-ERα cells [3]; 10 nM E2 or 5 μM 2′,3′,4′-THC, 3-fold or more, P≤0.05): 31 genes
- genes regulated by the combination that were also regulated by E2 (U2OS-ERα cells [3]; 5 μM + 10 nM E2): 534 genes
- number of genes regulated by the 2′,3′,4′-THC/E2 combination (U2OS-ERα cells [3]; 5 μM + 10 nM E2): 1,358 genes
- unique genes only regulated by the 2′,3′,4′-THC/E2 combination (U2OS-ERα cells [3]; 5 μM + 10 nM E2): 824 genes
- E2 dose at which FGR expression was induced (U2OS-ERα cells [4]): 0.1 nM
- E2 dose at which KCNK6 expression was induced (U2OS-ERα cells [4]): 1 nM
- E2 dose at which KRT73 expression was induced (U2OS-ERα cells [4]): 1 nM
- E2 activation of ERE-TK-Luc (MCF-7 cells): dose-dependent synergistic increase
